Test results reported in article PMC5298231, “The Malaria Parasite's Lactate Transporter PfFNT Is the Target of Antiplasmodial Compounds Identified in Whole Cell Phenotypic Screens” (PLoS Pathogens, 2017).
Read-outs that look alike come from different tables or passages of the source.

Test system: erythrocytes infected with 3D7 trophozoites
Assay type: cell-based, Plasmodium falciparum
Details: for Folate level, Log2 (treated vs control) / Geranylgeranyl pyrophosphate level, Log2 (treated vs control): sheet Log2; for Folate level, Log2 (treated vs control): medMz 440.132; for Geranylgeranyl pyrophosphate level, Log2 (treated vs control): medMz 449.186; for Ratio, Farnesyl diphosphate: metabolite Farnesyl diphosphate (medMz 381.123); for Ratio, Folate: metabolite Folate (medMz 440.132); for Ratio, Geranylgeranyl pyrophosphate: metabolite Geranylgeranyl pyrophosphate (medMz 449.186)

COc1ccc2c(c1)OC(O)(C(F)(F)C(F)(F)F)CC2=O (stereo not shown) [MMV007839]
NADH log2 ratio (+MMV007839/-MMV007839) (Av 6hr, 6 μM): -2.783
NADP+ log2 ratio (+MMV007839/-MMV007839) (Av 6hr, 6 μM): -0.3285
Octoluse Bisphosphate log2 ratio (+MMV007839/-MMV007839) (Av 6hr, 6 μM): 0.9087
Ornithine log2 ratio (+MMV007839/-MMV007839) (Av 6hr, 6 μM): -0.4177
Orotate log2 ratio (+MMV007839/-MMV007839) (Av 6hr, 6 μM): -1.6355
Orotidine 5-phosphate log2 ratio (+MMV007839/-MMV007839) (Av 6hr, 6 μM): -1.249
Orotidine log2 ratio (+MMV007839/-MMV007839) (Av 6hr, 6 μM): -0.6749
PAEF log2 ratio (+MMV007839/-MMV007839) (Av 6hr, 6 μM): 0.8061
PAVH log2 ratio (+MMV007839/-MMV007839) (Av 6hr, 6 μM): -0.07734
PD log2 ratio (+MMV007839/-MMV007839) (Av 6hr, 6 μM): 1.197
PDAV log2 ratio (+MMV007839/-MMV007839) (Av 6hr, 6 μM): 1.2
PE log2 ratio (+MMV007839/-MMV007839) (Av 6hr, 6 μM): 1.699
PEE log2 ratio (+MMV007839/-MMV007839) (Av 6hr, 6 μM): 1.042
PHF log2 ratio (+MMV007839/-MMV007839) (Av 6hr, 6 μM): 0.9826
PPVQ log2 ratio (+MMV007839/-MMV007839) (Av 6hr, 6 μM): -0.2514
PVNF log2 ratio (+MMV007839/-MMV007839) (Av 6hr, 6 μM): 0.6194
PVQ log2 ratio (+MMV007839/-MMV007839) (Av 6hr, 6 μM): 1.502
PVQA log2 ratio (+MMV007839/-MMV007839) (Av 6hr, 6 μM): -0.1116
Pantothenate log2 ratio (+MMV007839/-MMV007839) (Av 6hr, 6 μM): -0.4384
Phenylalanine log2 ratio (+MMV007839/-MMV007839) (Av 6hr, 6 μM): 0.1437
Phosphoenolpyruvate log2 ratio (+MMV007839/-MMV007839) (Av 6hr, 6 μM): 0.09862
Pipecolate log2 ratio (+MMV007839/-MMV007839) (Av 6hr, 6 μM): 1.035
Proline log2 ratio (+MMV007839/-MMV007839) (Av 6hr, 6 μM): 0.2232
Pyridoxine log2 ratio (+MMV007839/-MMV007839) (Av 6hr, 6 μM): 0.219
Pyruvate log2 ratio (+MMV007839/-MMV007839) (Av 6hr, 6 μM): 2.1785
Ribose-5-phosphate log2 ratio (+MMV007839/-MMV007839) (Av 6hr, 6 μM): 0.5462
S-Adenosyl-L-homocysteine log2 ratio (+MMV007839/-MMV007839) (Av 6hr, 6 μM): -0.1116
SDGLA log2 ratio (+MMV007839/-MMV007839) (Av 6hr, 6 μM): -0.7918
SFGD log2 ratio (+MMV007839/-MMV007839) (Av 6hr, 6 μM): -0.1482
Sedoheptoluse bisphosphate log2 ratio (+MMV007839/-MMV007839) (Av 6hr, 6 μM): -0.5568
Sedoheptulose-1/7-phosphate log2 ratio (+MMV007839/-MMV007839) (Av 6hr, 6 μM): 0.1885
Serine log2 ratio (+MMV007839/-MMV007839) (Av 6hr, 6 μM): 0.02139
Succinate log2 ratio (+MMV007839/-MMV007839) (Av 6hr, 6 μM): 0.1816
Succinate semialdehyde log2 ratio (+MMV007839/-MMV007839) (Av 6hr, 6 μM): -0.438
TNVK log2 ratio (+MMV007839/-MMV007839) (Av 6hr, 6 μM): -0.1213
Threonine log2 ratio (+MMV007839/-MMV007839) (Av 6hr, 6 μM): 0.6908
Tryptophan log2 ratio (+MMV007839/-MMV007839) (Av 6hr, 6 μM): -0.04867
Tyrosine log2 ratio (+MMV007839/-MMV007839) (Av 6hr, 6 μM): 0.1841
UDP log2 ratio (+MMV007839/-MMV007839) (Av 6hr, 6 μM): -0.5016
UDP-N-acetyl-D-glucosamine log2 ratio (+MMV007839/-MMV007839) (Av 6hr, 6 μM): -0.184
UDP-glucose log2 ratio (+MMV007839/-MMV007839) (Av 6hr, 6 μM): 0.0071
UMP log2 ratio (+MMV007839/-MMV007839) (Av 6hr, 6 μM): -0.08541
Uracil log2 ratio (+MMV007839/-MMV007839) (Av 6hr, 6 μM): -0.6376
Uric Acid log2 ratio (+MMV007839/-MMV007839) (Av 6hr, 6 μM): -0.1851
VD log2 ratio (+MMV007839/-MMV007839) (Av 6hr, 6 μM): 1.833
Valine log2 ratio (+MMV007839/-MMV007839) (Av 6hr, 6 μM): 0.1675
Xanthine log2 ratio (+MMV007839/-MMV007839) (Av 6hr, 6 μM): -0.5471
dADP log2 ratio (+MMV007839/-MMV007839) (Av 6hr, 6 μM): -0.4329
dATP log2 ratio (+MMV007839/-MMV007839) (Av 6hr, 6 μM): 0.01926
dCDP log2 ratio (+MMV007839/-MMV007839) (Av 6hr, 6 μM): 0.5589
dGMP log2 ratio (+MMV007839/-MMV007839) (Av 6hr, 6 μM): -0.355
dTMP log2 ratio (+MMV007839/-MMV007839) (Av 6hr, 6 μM): 0.4667
dTTP log2 ratio (+MMV007839/-MMV007839) (Av 6hr, 6 μM): 0.06317
dUMP log2 ratio (+MMV007839/-MMV007839) (Av 6hr, 6 μM): 1.053
myo-Inositol log2 ratio (+MMV007839/-MMV007839) (Av 6hr, 6 μM): -0.254
sn-Glycerol 3-phosphate log2 ratio (+MMV007839/-MMV007839) (Av 6hr, 6 μM): 1.275
sn-glycero-3-Phospho-1-inositol log2 ratio (+MMV007839/-MMV007839) (Av 6hr, 6 μM): 0.1242
Hexose-phosphate log2 ratio (+MMV007839/-MMV007839) (Av 6hr, 6 μM, medRt 15.0954): -0.2639
6-Phospho-D-gluconate log2 ratio (+MMV007839/-MMV007839) (Av 6hr, 6 μM, medRt 16.8944): -0.736
Hexose-phosphate log2 ratio (+MMV007839/-MMV007839) (Av 6hr, 6 μM, medRt 17.0788): -1.183
6-Phospho-D-gluconate log2 ratio (+MMV007839/-MMV007839) (Av 6hr, 6 μM, medRt 17.4636): -0.3794
Folate level, Log2 (treated vs control) (Exp1, 1hr): -0.2263
Geranylgeranyl pyrophosphate level, Log2 (treated vs control) (Exp1, 1hr): -0.6569
Folate level, Log2 (treated vs control) (Exp1, 3hr): -0.3477
Geranylgeranyl pyrophosphate level, Log2 (treated vs control) (Exp1, 3hr): -0.8295
Folate level, Log2 (treated vs control) (Exp1, 6hr): -0.6125
Geranylgeranyl pyrophosphate level, Log2 (treated vs control) (Exp1, 6hr): -0.9068
Folate level, Log2 (treated vs control) (Exp2, 1hr): -0.1779
Geranylgeranyl pyrophosphate level, Log2 (treated vs control) (Exp2, 1hr): -0.5207
Folate level, Log2 (treated vs control) (Exp2, 3hr): -0.4245
Geranylgeranyl pyrophosphate level, Log2 (treated vs control) (Exp2, 3hr): -0.4872
Folate level, Log2 (treated vs control) (Exp2, 6hr): -0.3923
Geranylgeranyl pyrophosphate level, Log2 (treated vs control) (Exp2, 6hr): -0.5435
Folate level, Log2 (treated vs control) (Exp3, 1hr): -0.2907
Geranylgeranyl pyrophosphate level, Log2 (treated vs control) (Exp3, 1hr): -0.5583
Folate level, Log2 (treated vs control) (Exp3, 3hr): -0.3083
Geranylgeranyl pyrophosphate level, Log2 (treated vs control) (Exp3, 3hr): -0.7313
Folate level, Log2 (treated vs control) (Exp3, 6hr): -0.4777
Geranylgeranyl pyrophosphate level, Log2 (treated vs control) (Exp3, 6hr): -0.686
Ratio, Farnesyl diphosphate (Exp1_1hr): 1.012
Ratio, Farnesyl diphosphate (Exp1_3hr): 0.9128
Ratio, Farnesyl diphosphate (Exp1_6hr): 0.7497
Ratio, Farnesyl diphosphate (Exp2_1hr): 1.018
Ratio, Farnesyl diphosphate (Exp2_3hr): 1.006
Ratio, Farnesyl diphosphate (Exp2_6hr): 0.9903
Ratio, Farnesyl diphosphate (Exp3_1hr): 0.9698
Ratio, Farnesyl diphosphate (Exp3_3hr): 1
Ratio, Farnesyl diphosphate (Exp3_6hr): 0.7551
Ratio, Folate (Exp1_1hr): 0.8548
Ratio, Folate (Exp1_3hr): 0.7858
Ratio, Folate (Exp1_6hr): 0.6541
Ratio, Folate (Exp2_1hr): 0.884
Ratio, Folate (Exp2_3hr): 0.7451
Ratio, Folate (Exp2_6hr): 0.7619
Ratio, Folate (Exp3_1hr): 0.8175
Ratio, Folate (Exp3_3hr): 0.8076
Ratio, Folate (Exp3_6hr): 0.7181
Ratio, Geranylgeranyl pyrophosphate (Exp1_1hr): 0.6342
Ratio, Geranylgeranyl pyrophosphate (Exp1_3hr): 0.5627
Ratio, Geranylgeranyl pyrophosphate (Exp1_6hr): 0.5334
Ratio, Geranylgeranyl pyrophosphate (Exp2_1hr): 0.697
Ratio, Geranylgeranyl pyrophosphate (Exp2_3hr): 0.7134
Ratio, Geranylgeranyl pyrophosphate (Exp2_6hr): 0.6861
Ratio, Geranylgeranyl pyrophosphate (Exp3_1hr): 0.6791
Ratio, Geranylgeranyl pyrophosphate (Exp3_3hr): 0.6023
Ratio, Geranylgeranyl pyrophosphate (Exp3_6hr): 0.6216
